Laboratory results from patent US20240287089A1, “Preparation and Uses of 7-Azaindenoisoquinolines” (Purdue Research Foundation, priority 0001, published 2024).

Columns and labels:
[1] = test system: Myc protein in MCF-7 breast cancer cells; assay: Western blot of Myc protein level; assay type: cell-based; details: MCF-7, 0.5, 1.0, 2.0 μM, 24 h
Protocol: Western blot. G-quadruplex formed in the MYC promoter functions as a transcriptional silencer. To determine the effects of 7-aza-8,9-methylenedioxyindenosioquinolines on the MYC protein level, a western blotting experiment was carried out using MCF-7 breast cancer cells. Western blot experiments were conducted to examine the downregulation effects of 7-aza-8,9-methylenedioxyindenosioquinolines on Myc protein level (FIG. 5). MCF-7 breast cancer cells were incubated for 24 h at 0, 0.5, 1.0, and 2.0 μM of G-101-108.
Western Blotting. MCF-7 cells were grown and treated in 6-well tissue culture plates. After collection, cells were suspended in 140 μL lysis buffer containing 1× RIPA buffer, 1× Protease Inhibitor Cocktail (A32965, Thermo Scientific), 1× NuPAGE LDS Sample Buffer (NP0007, Invitrogen), and 1× Sample Reducing Agent (NP0009, Invitrogen). The cell lysates were heated to 75° C. for 10 min. After sonication, 8 μL of each sample was loaded on a 4-15% Mini-PROTEAN TGX gel (4561086, Bio-Rad). […] Myc and GAPDH were detected with 1:1000-diluted monoclonal anti-Myc antibody (5605S, Cell Signaling Technology) and 1:2000-diluted monoclonal anti-GAPDH antibody (5174S, Cell Signaling Technology), respectively. Primary antibodies were detected by anti-Rabbit IgG HRP-linked antibody (7074S, Cell Signaling Technology). […]

human Topo1 = human Topo1 (Homo sapiens (Human), UniProt P11387); assay: Topo1-mediated DNA cleavage assay; assay type: biochemical; details: 10 μM
Protocol: 7-Aza-8,9-methylenedioxyindenoisoquinoline compounds were examined for inhibitory effects on Topol-mediated DNA relaxation (FIG. 11A), and for Topol poison effect using Topol-Mediated DNA Cleavage Assay (FIG. 11B).
Topol-Mediated DNA Cleavage Assay. Human Topoisomerase I Assay Kit (TG1015-1A) from Topogen was used to examine the compounds for Topol poison effect. Assay was performed according to manufacturer's instructions. CPT at 10 μM was used as a positive control. […] Assay samples were incubated at 37° C. for 30 min followed by reaction termination with 10% SDS. This was followed by a 15 min Proteinase K digestion for 15 min at 37° C. to degrade Topo1 and a 1:1 volume chloroform:isoamyl alcohol DNA extraction. Samples were electrophoresed on a 1% agarose gel in TBE buffer for 2 h at 46 v. Both the agarose gel and buffer contained 0.5 μg/ml of ethidium bromide.

RAJI lymphoma cells = assay: MTS cell viability IC50 assay; assay type: cell-based; details: 72 h
Protocol: Cytotoxicity Results in Raji Non-Hodgkin's Lymphoma Cells. MTS experiments were then conducted to test the anti-proliferative effects of 7-aza-8,9-methylenedioxyindenoisoquinolines in Raji cells. Cells were incubated at 2-2000 nM of each drug for 72 h, and cell viabilities were quantified using the MTS assay. […] This potency trend generally correlated with the western blot results, in which G106 and G108 […] show weaker Myc downregulation.
(§1) MTS Cell Viability IC50 Assay. Drug solutions for MTS IC50 assays of suspension cell lines were made from DMSO stocks by serial-dilutions in 1×PBS (10010-031, Gibco). To set up treatments, drug solutions were plated in triplicates to 96-well tissue culture plates, to which cell-containing media was added to a total volume of 100 μL/well. 100%-viability controls were untreated cells. 2000 cells/well were plated for all suspension cell lines except 3000 cells/well for KMS-27 and 10000 cells/well for CHLA-32. Blanks were cell-free media. Drug treatments were maintained for 72 hr at 37° C. with 5% CO2. To quantify cells, CellTiter 96 AQueous MTS Reagent Powder (G1111, Promega) was dissolved and mixed with phenazine methosulfate (PMS, Sigma-Aldrich P9625) according to manufacturer's instructions. MTS/PMS mix ([…]) was added to treatment wells, 100%-viability control wells, and blank wells. Colors were developed at 37° C. with 5% CO2 for 4 h and absorbance at 490 nm was measured by BioTek Synergy 4 system. To obtain %-viability, A490 values were corrected by blank subtraction, normalized to 100%-viability control, and averaged. Average %-viabilities were plotted against drug dosages to obtain dose-response curves. […] For adherent cell lines, the MTS IC50 assays were conducted the same way as for suspension cell lines except for cell plating and drug treatment. For cell plating, 50 μL of 2000 cells were plated in triplicates to a 96-well tissue culture plate. Cells were allowed sufficient time to become adherent. Serial-diluted drug solutions were made the same way as in the MTS IC50 assays. To set up treatments, drug solutions were mixed with media to two-fold of the final concentrations, and 50 μL of such drug-media mix was then added to 50 μL of plated cells.

[2] = Plasma protein binding by equilibrium dialysis; details: human plasma
Protocol: (§3) Analysis of Plasma Protein Binding and Stability in Human and Mouse Blood Plasma by Equilibrium Dialysis. Frozen plasma (stored at −80° C.) was thawed immediately in a 37° C. water bath. The working solutions of test compound and control compound were prepared in DMSO at 200 μM concentration, and the working solutions were spiked into plasma. The final concentration of compound was 1 μM. The final concentration of DMSO was 0.5%. Ketoconazole was used as positive control in the assay. The dialysis membranes were soaked in ultrapure water for 60 min to separate strips, then in 20% ethanol for 20 min, and then finally in dialysis buffer for 20 min. For equilibrium dialysis, each cell contained plasma sample (150 μL) and was dialyzed against an equal volume of dialysis buffer (PBS). The assay was performed in duplicate. The dialysis plate was sealed and incubated at 37° C. with 5% CO2 at 100 rpm for 6 h. At the end of incubation, samples (50 μL) from both buffer and plasma chambers were transferred to wells of a 96-well plate. Plasma (50 μL) was added to each buffer sample and an equal volume of PBS was added to the collected plasma sample. Cold acetonitrile (400 μL) containing internal standards (IS, 100 nM alprazolam, 200 nM labetalol, 200 nM imipramine and 2 μM ketoprofen) was added to precipitate protein and release compounds. Samples were vortexed for 2 min and centrifuged for 30 min at 3,220 g. An aliquot (100 μL) of the supernatant was diluted with ultra-pure H2O (100 μL), and the mixture was used for LC-MS/MS analysis. For stability determination in plasma, a spiked plasma sample (50 μL) was transferred to a new plate and incubated at 37° C., 5% CO2 for 0 and 6 h. At designated time points, PBS (50 μL) was added and mixed thoroughly, followed by the addition of room temperature quench solution [400 μL of acetonitrile containing internal standards (IS, 100 nM alprazolam, 200 nM labetalol, 200 nM imipramine and 2 μM ketoprofen)] to precipitate protein and release compounds. Samples were vortexed for 2 min and centrifuged for 30 min at 3,220 g. An aliquot (400 μL) of the supernatant was diluted by ultra-pure H2O, and the mixture was used for LC-MS/MS analysis. The concentrations of test compounds in the buffer and plasma chambers were determined from peak area ratios.

[3] = Stability in blood plasma; details: mouse plasma, 37° C.
Protocol: Analysis of Plasma Protein Binding and Stability in Human and Mouse Blood Plasma by Equilibrium Dialysis. Frozen plasma (stored at −80° C.) was thawed immediately in a 37° C. water bath. The working solutions of test compound and control compound were prepared in DMSO at 200 μM concentration, and the working solutions were spiked into plasma. The final concentration of compound was 1 μM. The final concentration of DMSO was 0.5%. Ketoconazole was used as positive control in the assay. The dialysis membranes were soaked in ultrapure water for 60 min to separate strips, then in 20% ethanol for 20 min, and then finally in dialysis buffer for 20 min. For equilibrium dialysis, each cell contained plasma sample (150 μL) and was dialyzed against an equal volume of dialysis buffer (PBS). The assay was performed in duplicate. The dialysis plate was sealed and incubated at 37° C. with 5% CO2 at 100 rpm for 6 h. At the end of incubation, samples (50 μL) from both buffer and plasma chambers were transferred to wells of a 96-well plate. Plasma (50 μL) was added to each buffer sample and an equal volume of PBS was added to the collected plasma sample. […] The concentrations of test compounds in the buffer and plasma chambers were determined from peak area ratios.

[4] = Stability in blood plasma; details: human plasma, 37° C.
Protocol: as §3

[5] = Plasma protein binding by equilibrium dialysis; details: mouse plasma
Protocol: as §3

[6] = molecular target: 3′-TAMRA-labeled MycG4 DNA; assay: Fluorescence binding assay; details: 20° C., 100 mM K+ buffer, pH 7.0; read-out: Apparent Binding Affinity Kd, app
Protocol: Binding Affinity to the Myc G-Quadruplex. Binding affinity of eight 7-aza-8,9-methylenedioxyindenoisoquinolines to MycG4 was determined using a fluorescence binding assay with a 3′-TAMRA-labeled MycG4 DNA. Monitoring TAMRA emission upon drug titration afforded binding isotherms, from which apparent binding affinities, Kd,app, were derived.
Fluorescence-Based Binding Assays. Fluorescence-based binding assays were performed on a Jasco FP-8300 spectrofluorometer equipped with a temperature controller at 20° C. in a quartz cuvette with a 10 mm path length. 3′-TAMRA-labeled MycG4 DNA (Sigma-Aldrich) was diluted to 20 nM using a 75 mM KCl/25 mM potassium phosphate buffer, pH 7.0. […] Fluorescence intensity at 580 nm, the maximum for the free DNA, was plotted against drug:DNA ratio. The apparent binding dissociation constant, Kd,app, was derived for the binding of each compound. Using OriginPro software (OriginLab Corp., United States) the change in fluorescence intensity was fitted to a one-site binding equation,
where B0 is the initial fluorescence intensity, B is maximum change in fluorescence intensity, R is DNA concentration, and L is drug:DNA ratio.

Kasumi-1 = assay: MTS GI50, Myc-dependent panel; assay type: cell-based; details: Homo sapiens; Kasumi-1, 72 h; read-out: GI50
Protocol: (§2) Cytotoxicity Results in Myc-dependent Cancer Cell Lines.
as §1

MOLT-4 = assay: MTS GI50, Myc-dependent panel; assay type: cell-based; details: Homo sapiens, MOLT-4, 72 h; read-out: GI50
Protocol: as §2, §1

TC-106 = assay: MTS GI50, Myc-dependent panel; assay type: cell-based; details: TC-106, 72 h; read-out: GI50
Protocol: as §2, §1

CHLA-32 = assay: MTS GI50, Myc-dependent panel; assay type: cell-based; details: CHLA-32, 72 h; read-out: GI50
Protocol: as §2, §1

AMO-1 = assay: MTS GI50, Myc-dependent panel; assay type: cell-based; details: Homo sapiens, AMO1; AMO-1, 72 h; read-out: GI50
Protocol: as §2, §1

MDA-MB-231 = assay: MTS GI50, Myc-dependent panel; assay type: cell-based; details: Homo sapiens, MDA-MB-231, 72 h; read-out: GI50
Protocol: as §2, §1

TC-32 = assay: MTS GI50, Myc-dependent panel; assay type: cell-based; details: Homo sapiens, TC-32, 72 h; read-out: GI50
Protocol: as §2, §1

KMS-27 = assay: MTS GI50, Myc-dependent panel; assay type: cell-based; details: KMS-27, 72 h; read-out: GI50
Protocol: as §2, §1

CHLA-99 = assay: MTS GI50, Myc-dependent panel; assay type: cell-based; details: CHLA-99, 72 h; read-out: GI50
Protocol: as §2, §1

ARD = assay: MTS GI50, Myc-dependent panel; assay type: cell-based; details: ARD, 72 h; read-out: GI50
Protocol: as §2, §1

TC-71 = assay: MTS GI50, Myc-dependent panel; assay type: cell-based; details: TC-71, 72 h; read-out: GI50
Protocol: as §2, §1

MCF-7 = assay: MTS GI50, Myc-dependent panel; assay type: cell-based; details: Homo sapiens, MCF7; MCF-7, 72 h; read-out: GI50
Protocol: as §2, §1

K-562 = assay: MTS GI50, Myc-dependent panel; assay type: cell-based; details: Homo sapiens, K562; K-562, 72 h; read-out: GI50
Protocol: as §2, §1

THP-1 = assay: MTS GI50, Myc-dependent panel; assay type: cell-based; details: Homo sapiens, THP-1, 72 h; read-out: GI50
Protocol: as §2, §1

L-363 = assay: MTS GI50, Myc-dependent panel; assay type: cell-based; details: Homo sapiens, L-363, 72 h; read-out: GI50
Protocol: as §2, §1

RS4;11 = assay: MTS GI50, Myc-dependent panel; assay type: cell-based; details: Homo sapiens; RS4;11, 72 h; read-out: GI50
Protocol: as §2, §1

RD-ES = assay: MTS GI50, Myc-dependent panel; assay type: cell-based; details: 72 h, read-out: GI50
Protocol: as §2, §1

RPMI-8226 = assay: MTS GI50, Myc-dependent panel; assay type: cell-based; details: Homo sapiens, RPMI-8226, 72 h; read-out: GI50
Protocol: as §2, §1

CCRF-CRM = assay: MTS GI50, Myc-dependent panel; assay type: cell-based; details: CCRF-CRM, 72 h; read-out: GI50
Protocol: as §2, §1

SK-N-MC = assay: MTS GI50, Myc-dependent panel; assay type: cell-based; details: Homo sapiens, 72 h, read-out: GI50
Protocol: as §2, §1

HL-60 = assay: MTS GI50, Myc-dependent panel; assay type: cell-based; details: Homo sapiens, HL-60, 72 h; read-out: GI50
Protocol: as §2, §1

human Topo1, sequence (P11387 whole entry): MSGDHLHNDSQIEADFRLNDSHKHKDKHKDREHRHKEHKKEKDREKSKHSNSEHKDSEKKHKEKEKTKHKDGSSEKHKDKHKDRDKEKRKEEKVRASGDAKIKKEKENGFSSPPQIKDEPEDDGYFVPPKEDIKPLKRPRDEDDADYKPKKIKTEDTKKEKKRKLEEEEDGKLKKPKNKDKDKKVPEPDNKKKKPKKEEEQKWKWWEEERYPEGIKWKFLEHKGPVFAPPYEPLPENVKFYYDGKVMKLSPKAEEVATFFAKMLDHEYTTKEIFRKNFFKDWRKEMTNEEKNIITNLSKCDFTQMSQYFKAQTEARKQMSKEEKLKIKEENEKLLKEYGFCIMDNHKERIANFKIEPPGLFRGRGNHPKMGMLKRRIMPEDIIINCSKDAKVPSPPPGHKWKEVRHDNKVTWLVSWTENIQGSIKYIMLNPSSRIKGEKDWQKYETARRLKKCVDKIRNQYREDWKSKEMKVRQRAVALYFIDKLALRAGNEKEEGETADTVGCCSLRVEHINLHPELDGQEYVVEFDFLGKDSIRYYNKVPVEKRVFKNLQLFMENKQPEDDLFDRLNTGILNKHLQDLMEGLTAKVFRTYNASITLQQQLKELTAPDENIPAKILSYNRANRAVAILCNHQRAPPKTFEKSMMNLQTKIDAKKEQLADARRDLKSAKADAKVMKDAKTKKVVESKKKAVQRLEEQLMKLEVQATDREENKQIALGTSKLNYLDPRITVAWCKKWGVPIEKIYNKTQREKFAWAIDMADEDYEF

## COc1cc2c3c(n(CCCN4CCCC4)c(=O)c2cc1OC)-c1nc2c(cc1C3=O)OCO2 [G108, 2,3-Dimethoxy-6-(3-(pyrrolidin-1-yl)propyl)-5H-[1,3]dioxolo[4″,5″:5′,6′]pyrido[3′,2′:4,5]cyclopenta[1,2-c]isoquinoline-5,12(6H)-dione]
[1]
  Myc protein level (Western blot): weak Myc downregulation
Human Topo1
  inhibition of DNA relegation (Top1 poison effect): minimal effects on DNA relegation
RAJI lymphoma cells; RAJI
  IC50: 1710 nM

## CC(=O)N1CCN(c2ccc(OCC3COC(Cn4ccnc4)(c4ccc(Cl)cc4Cl)O3)cc2)CC1 (centres unmarked) [Ketoconazole]
[2]
  % Recovery: 107.45%
[2]; 1 μM, 6 h dialysis
  % Bound: 98.01%
[3]
  % Stability at 6 hrs: 88.82%
[4]
  % Stability at 6 hrs: 104.96%
[5]
  % Recovery: 93.23%
[5]; 1 μM, 6 h dialysis
  % Bound: 99.26%

## COc1cc2c3c(n(CCCn4ccnc4)c(=O)c2cc1OC)-c1cc2c(cc1C3=O)OCO2 [LMP776, indimitecan]
[6]
  Kd: 69 nM
RAJI lymphoma cells; Homo sapiens, Raji
  IC50: 92 nM
Kasumi-1
  GI50: 533 nM
MOLT-4
  GI50: 42 nM
TC-106
  GI50: 250 nM
CHLA-32
  GI50: 93 nM
AMO-1
  GI50: 191 nM
MDA-MB-231
  GI50: 329 nM
TC-32
  GI50: 179 nM
KMS-27
  GI50: 127 nM
CHLA-99
  GI50: 276 nM
ARD
  GI50: 33 nM
TC-71
  GI50: 232 nM
MCF-7
  GI50: > 2000 nM
K-562
  GI50: 341 nM
THP-1
  GI50: 273 nM
L-363
  GI50: 53 nM
RS4;11
  GI50: 59 nM
RD-ES
  GI50: 227 nM
RPMI-8226
  GI50: 139 nM
CCRF-CRM
  GI50: 70 nM
SK-N-MC
  GI50: 225 nM
HL-60
  GI50: 894 nM
